Measured values as given in US12077503B2, “Substituted cyclic amides and their use as herbicides” (FMC CORPORATION, priority 2015, dated 2024).
Read-outs that look alike come from different tables or passages of the source.

Key:
Test in all cases: Test A preemergence
Type in all cases: in vivo
Kochia (Kochia scoparia) = conditions: Bassia scoparia, pre-emergence, 240 h; for pest or weed control at 125 g/ha: 125 g ai/ha; for pest or weed control at 500 g/ha: 500 g ai/ha
In short: (§1)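 Visual injury scores from 0, no effect, to 100, complete control, were assigned versus untreated controls roughly 10 d after treatment in the greenhouse. Test chemicals, formulated with surfactant in a non-phytotoxic solvent, were applied to planted seeds as a preemergence soil spray or postemergence to one- to two-leaf plants 2 to 10 cm tall, in loam–sand soil.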

[1] = test system: pigweed (Amaranthus retroflexus); conditions: Amaranthus retroflexus, pre-emergence, 240 h; for pest or weed control at 125 g/ha: 125 g ai/ha; for pest or weed control at 500 g/ha: 500 g ai/ha
[2] = test system: giant foxtail (Setaria faberii); conditions: Setaria faberi, pre-emergence, 240 h; for pest or weed control at 125 g/ha: 125 g ai/ha; for pest or weed control at 500 g/ha: 500 g ai/ha
In short: as §1

[3] = test system: barnyardgrass (Echinochloa crus-galli); conditions: Echinochloa crus-galli, pre-emergence, 240 h; for pest or weed control at 125 g/ha: 125 g ai/ha; for pest or weed control at 500 g/ha: 500 g ai/ha
In short: as §1

[4] = test system: ryegrass, Italian (Italian ryegrass, Lolium multiflorum); conditions: Lolium multiflorum, pre-emergence, 240 h; for pest or weed control at 125 g/ha: 125 g ai/ha; for pest or weed control at 500 g/ha: 500 g ai/ha
In short: as §1

[5] = test system: ragweed (common ragweed, Ambrosia elatior); conditions: Ambrosia artemisiifolia, pre-emergence, 240 h; for pest or weed control at 125 g/ha: 125 g ai/ha; for pest or weed control at 500 g/ha: 500 g ai/ha
In short: as §1

[6] = preemergence, visual rating after approx. 10 d, 0 to 100 scale where 0 is no effect and 100 is complete control, read-out: Plant response rating, Kochia
[7] = preemergence, visual rating after approx. 10 d, 0 to 100 scale where 0 is no effect and 100 is complete control, read-out: Plant response rating, Pigweed
[8] = preemergence, visual rating after approx. 10 d, 0 to 100 scale where 0 is no effect and 100 is complete control, read-out: Plant response rating, Foxtail, Giant
[9] = preemergence, visual rating after approx. 10 d, 0 to 100 scale where 0 is no effect and 100 is complete control, read-out: Plant response rating, Barnyardgrass
[10] = preemergence, visual rating after approx. 10 d, 0 to 100 scale where 0 is no effect and 100 is complete control, read-out: Plant response rating, Ryegrass, Italian
[11] = preemergence, visual rating after approx. 10 d, 0 to 100 scale where 0 is no effect and 100 is complete control, read-out: Plant response rating, Ragweed
[12] = preemergence, 0 to 100 scale, 0 = no effect, 100 = complete control, read-out: Plant response rating, Kochia
[13] = preemergence, 0 to 100 scale, 0 = no effect, 100 = complete control, read-out: Plant response rating, Pigweed
[14] = preemergence, 0 to 100 scale, 0 = no effect, 100 = complete control, read-out: Plant response rating, Foxtail, Giant
[15] = preemergence, 0 to 100 scale, 0 = no effect, 100 = complete control, read-out: Plant response rating, Barnyardgrass
[16] = preemergence, 0 to 100 scale, 0 = no effect, 100 = complete control, read-out: Plant response rating, Ryegrass, Italian
[17] = preemergence, 0 to 100 scale, 0 = no effect, 100 = complete control, read-out: Plant response rating, Ragweed
[18] = preemergence, visual injury rating, 0 to 100 scale where 0 is no effect and 100 is complete control, approximately 10 d, read-out: Kochia plant response rating
[19] = preemergence, 0 to 100 scale where 0 is no effect and 100 is complete control, read-out: Kochia plant response rating
[20] = preemergence, visual injury rating, 0 to 100 scale where 0 is no effect and 100 is complete control, approximately 10 d, read-out: Pigweed plant response rating
[21] = preemergence, 0 to 100 scale where 0 is no effect and 100 is complete control, read-out: Pigweed plant response rating
[22] = preemergence, visual injury rating, 0 to 100 scale where 0 is no effect and 100 is complete control, approximately 10 d, read-out: Foxtail, Giant plant response rating
[23] = preemergence, 0 to 100 scale where 0 is no effect and 100 is complete control, read-out: Foxtail, Giant plant response rating
[24] = preemergence, visual injury rating, 0 to 100 scale where 0 is no effect and 100 is complete control, approximately 10 d, read-out: Barnyardgrass plant response rating
[25] = preemergence, 0 to 100 scale where 0 is no effect and 100 is complete control, read-out: Barnyardgrass plant response rating
[26] = preemergence, visual injury rating, 0 to 100 scale where 0 is no effect and 100 is complete control, approximately 10 d, read-out: Ryegrass, Italian plant response rating
[27] = preemergence, 0 to 100 scale where 0 is no effect and 100 is complete control, read-out: Ryegrass, Italian plant response rating
[28] = preemergence, visual injury rating, 0 to 100 scale where 0 is no effect and 100 is complete control, approximately 10 d, read-out: Ragweed plant response rating
[29] = preemergence, 0 to 100 scale where 0 is no effect and 100 is complete control, read-out: Ragweed plant response rating

SMILES | pest or weed control at 125 g/ha (Kochia (Kochia scoparia); [6]) [%] | pest or weed control at 125 g/ha [1, 7] [%] | pest or weed control at 125 g/ha [2, 8] [%] | pest or weed control at 125 g/ha [3, 9] [%] | pest or weed control at 125 g/ha [4, 10] [%] | pest or weed control at 125 g/ha [5, 11] [%] | pest or weed control at 500 g/ha (Kochia (Kochia scoparia); [12]) [%] | pest or weed control at 500 g/ha [1, 13] [%] | pest or weed control at 500 g/ha [2, 14] [%] | pest or weed control at 500 g/ha [3, 15] [%] | pest or weed control at 500 g/ha [4, 16] [%] | pest or weed control at 500 g/ha [5, 17] [%] | other results
Cc1cc(F)cc([C@H]2CN(C)C(=O)[C@@H]2C(=O)Nc2cccc(F)c2C#N)c1 [Compound 800] | 0 | 20 | 90 | 90 | 40 | 0 | – | – | – | – | – | – | pest or weed control at 31 g/ha (Kochia (Kochia scoparia); Preemergence, 31 g ai/ha, 0 to 100 scale (0 no effect, 100 complete control), read-out: Plant response rating, Kochia): 0%; pest or weed control at 31 g/ha ([1]; Preemergence, 31 g ai/ha, 0 to 100 scale (0 no effect, 100 complete control), read-out: Plant response rating, Pigweed): 0%; pest or weed control at 31 g/ha ([2]; Preemergence, 31 g ai/ha, 0 to 100 scale (0 no effect, 100 complete control), read-out: Plant response rating, Foxtail, Giant): 80%; pest or weed control at 31 g/ha ([3]; Preemergence, 31 g ai/ha, 0 to 100 scale (0 no effect, 100 complete control), read-out: Plant response rating, Barnyardgrass): 80%; pest or weed control at 31 g/ha ([4]; Preemergence, 31 g ai/ha, 0 to 100 scale (0 no effect, 100 complete control), read-out: Plant response rating, Ryegrass, Italian): 0%; pest or weed control at 31 g/ha ([5]; Preemergence, 31 g ai/ha, 0 to 100 scale (0 no effect, 100 complete control), read-out: Plant response rating, Ragweed): 0%
O=C1NC[C@H](c2csc3ccccc23)[C@H]1C(=O)Nc1ccccc1F [Compound 750] | 0 | 0 | 50 | 80 | 0 | 0 | 0 | 0 | 90 | 90 | 20 | 0 | –
O=C1NC[C@H](c2cccc(C(F)(F)F)c2)C1C(=O)Nc1c(F)cccc1CO (stereo partly drawn) [Compound 1240] | – | – | – | – | – | – | – | – | – | – | – | – | pest or weed control at 125 g/ha (Kochia (Kochia scoparia); [18]): 0%; pest or weed control at 500 g/ha (Kochia (Kochia scoparia); [19]): 0%; pest or weed control at 125 g/ha [1, 20]: 0%; pest or weed control at 500 g/ha [1, 21]: 0%; pest or weed control at 125 g/ha [2, 22]: 0%; pest or weed control at 500 g/ha [2, 23]: 0%; pest or weed control at 125 g/ha [3, 24]: 0%; pest or weed control at 500 g/ha [3, 25]: 0%; pest or weed control at 125 g/ha [4, 26]: 0%; pest or weed control at 500 g/ha [4, 27]: 0%; pest or weed control at 125 g/ha [5, 28]: 0%; pest or weed control at 500 g/ha [5, 29]: 0%
CO[C@]1(C(=O)Nc2cccc(F)c2F)C(=O)N(C)C[C@@H]1c1ccc(C(F)(F)F)cc1 (racemic) [Compound 1334] | – | – | – | – | – | – | – | – | – | – | – | – | pest or weed control at 500 g/ha (Kochia (Kochia scoparia); preemergence, 0 to 100 scale (0 no effect, 100 complete control), read-out: Plant response rating, Kochia): 20%; pest or weed control at 125 g/ha (Kochia (Kochia scoparia); Preemergence, 0 to 100 scale (0 no effect, 100 complete control), read-out: Plant response rating, Kochia): 0%; pest or weed control at 500 g/ha ([1]; preemergence, 0 to 100 scale (0 no effect, 100 complete control), read-out: Plant response rating, Pigweed): 30%; pest or weed control at 125 g/ha ([1]; Preemergence, 0 to 100 scale (0 no effect, 100 complete control), read-out: Plant response rating, Pigweed): 20%; pest or weed control at 500 g/ha ([2]; preemergence, 0 to 100 scale (0 no effect, 100 complete control), read-out: Plant response rating, Foxtail, Giant): 80%; pest or weed control at 125 g/ha ([2]; Preemergence, 0 to 100 scale (0 no effect, 100 complete control), read-out: Plant response rating, Foxtail, Giant): 40%; pest or weed control at 500 g/ha ([3]; preemergence, 0 to 100 scale (0 no effect, 100 complete control), read-out: Plant response rating, Barnyardgrass): 80%; pest or weed control at 125 g/ha ([3]; Preemergence, 0 to 100 scale (0 no effect, 100 complete control), read-out: Plant response rating, Barnyardgrass): 20%; pest or weed control at 500 g/ha ([4]; preemergence, 0 to 100 scale (0 no effect, 100 complete control), read-out: Plant response rating, Ryegrass, Italian): 20%; pest or weed control at 125 g/ha ([4]; Preemergence, 0 to 100 scale (0 no effect, 100 complete control), read-out: Plant response rating, Ryegrass, Italian): 0%; pest or weed control at 500 g/ha ([5]; preemergence, 0 to 100 scale (0 no effect, 100 complete control), read-out: Plant response rating, Ragweed): 30%; pest or weed control at 125 g/ha ([5]; Preemergence, 0 to 100 scale (0 no effect, 100 complete control), read-out: Plant response rating, Ragweed): 0%
CCc1cc(CC)cc([C@H]2CN(C)C(=O)[C@@H]2C(=O)Nc2cccc(F)c2F)c1 [Compound 736] | 20 | 0 | 90 | 90 | 90 | 0 | 70 | 20 | 90 | 90 | 90 | 20 | –
O=C1NC[C@H](c2cccc(C(F)(F)F)c2)C1C(=O)Nc1ccccc1CO (stereo partly drawn) [Compound 1244] | – | – | – | – | – | – | – | – | – | – | – | – | pest or weed control at 125 g/ha (Kochia (Kochia scoparia); [18]): 0%; pest or weed control at 500 g/ha (Kochia (Kochia scoparia); [19]): 0%; pest or weed control at 125 g/ha [1, 20]: 0%; pest or weed control at 500 g/ha [1, 21]: 0%; pest or weed control at 125 g/ha [2, 22]: 90%; pest or weed control at 500 g/ha [2, 23]: 90%; pest or weed control at 125 g/ha [3, 24]: 80%; pest or weed control at 500 g/ha [3, 25]: 90%; pest or weed control at 125 g/ha [4, 26]: 0%; pest or weed control at 500 g/ha [4, 27]: 50%; pest or weed control at 125 g/ha [5, 28]: 0%; pest or weed control at 500 g/ha [5, 29]: 0%
Cc1ccc([C@H]2CN(C)C(=O)[C@@H]2C(=O)Nc2cccc(F)c2F)c(F)c1 [Compound 730] | 70 | 30 | 90 | 90 | 20 | 50 | 80 | 50 | 100 | 100 | 70 | 60 | –
